Laboratory results: ChEMBL document CHEMBL5331052, “Discovery of a novel water-soluble, rapid-release triptolide prodrug with improved drug-like properties and high efficacy in human acute myeloid leukemia” (Eur J Med Chem, 2022)
Active and inactive are the calls of the source. The rule behind the calls is not given here.

Key:
[1] = Cmax in Sprague-Dawley rat at 1.0 mg/kg, po administered via oral gavage and measured upto 24 hrs by LC-MS/MS analysis; format: ADME, organism-based; set-up: dose 1 mg/kg, time < 24 hrs, route po; details: in vivo
[2] = AUC (0 to t) in Sprague-Dawley rat at 1.0 mg/kg, po administered via oral gavage and measured upto 24 hrs by LC-MS/MS analysis; format: ADME, organism-based; set-up: dose 1 mg/kg, time < 24 hrs, route po; details: in vivo
[3] = tested on: MV4-11; experiment: Antitumor activity against human MV4-11 cells xenografted in BALB/c nude mouse assessed as tumor growth inhibition at 180 microg/kg/day, IG measured everyday for 11 days relative to control; format: functional; details: MV4-11, po, 264 h, at 180 µg/kg/day, time 11 day, read-out: TGI
[4] = tested on: MV4-11; experiment: Antiproliferative activity against human MV4-11 cells assessed as cell growth inhibition measured after 48 hrs by CCK8 assay; format: functional, cell-based; details: MV4-11, 48 h
[5] = tested on: THP-1; experiment: Antiproliferative activity against human THP-1 cells assessed as inhibition of cell growth measured after 48 hrs by CCK8 assay; format: functional, cell-based; details: THP-1, 48 h
[6] = Tmax in Sprague-Dawley rat at 1.0 mg/kg, po administered via oral gavage and measured upto 24 hrs by LC-MS/MS analysis; format: ADME, organism-based; details: in vivo
[7] = Prodrug conversion in Sprague-Dawley rat plasma assessed as triptolide release at 500 ng/ml measured after 1.5 hrs by UPLC-MS/MS analysis; format: ADME, cell-free
[8] = Chemical stability of the compound in water assessed as parent compound remaining at 2 mg/ml measured after 4 hrs by HPLC analysis; format: physicochemical; details: read-out: Stability
[9] = Prodrug conversion in Sprague-Dawley rat plasma assessed as triptolide release at 50 ug/ml measured after 30 mins by HPLC analysis; format: ADME, cell-free; details: 0.5 h, dose 50 µg/ml
[10] = Aqueous solubility of compound at 1 to 10 mg/ml by HPLC analysis; format: physicochemical; details: water; dose 1-10 mg/ml
[11] = Chemical stability of the compound in water assessed as parent compound remaining at 2 mg/ml measured immediately by HPLC analysis; format: physicochemical; details: read-out: Stability
[12] = tested on: MV4-11; experiment: Antitumor activity against human MV4-11 cells xenografted in BALB/c nude mouse assessed as cell growth inhibition by measuring effect on Ki67 protein expression in tumor at 50 microg/kg, ip administered for 20 days in presence of gilteritinib by immunohistochemical analysis; format: functional, organism-based; details: dose 50.0 µg/kg, time 20.0 day
[13] = tested on: PBMC; experiment: Cytotoxicity against human PBMC cells assessed as cell survial at 30 to 300 nM measured after 48 hrs by CCK8 assay; format: toxicity, cell-based; details: 0.3 µM, dose 30-300 nM
[14] = tested on: THP-1; experiment: Potency index, ratio of test compound IC50 to triptolide IC50 for antiproliferative activity against human THP-1 cells assessed as inhibition of cell growth measured after 48 hrs by CCK8 assay; format: functional
[15] = Microsomal stability in rat liver microsomes assessed as intrinsic clearance; format: ADME, Microsome; details: read-out: CLH
[16] = Prodrug conversion in human plasma assessed as (5bS,6aS,7aR,8R,8aS,9aS,9bS,10bS)-8a-isopropyl-10b-methyl-3-oxo-1,2,3,5,5b,6,6a,8,8a,9a,9b,10b-dodecahydrotris(oxireno [2',3':4b,5;2'',3'':6,7;2''',3''':8a,9]phenanthro[1,2-c]furan-8-yl 2-hydroxyacetate intermediate formation measured after 1 hr by HPLC analysis; format: ADME, cell-free
[17] = tested on: MV4-11; experiment: Antitumor activity against human MV4-11 cells xenografted in BALB/c nude mouse assessed as complete tumor regression at 100 microg/kg, ip qd measured every 2 days for 12 days; format: functional, organism-based; details: dose 100.0 µg/kg, time 12.0 day
[18] = tested on: THP-1; experiment: Antitumor activity against human THP-1 cells xenografted in BALB/c nude mouse assessed as complete tumor regression at 300 microg/kg, ip qd measured every 2 days for 16 days; format: functional, organism-based; details: dose 300.0 µg/kg, time 16.0 day
[19] = tested on: THP-1; experiment: Antitumor activity against human THP-1 cells xenografted in BALB/c nude mouse assessed as induction of apoptosis by measuring increase in cleaved caspase-3 level in tumor at 0.1 mg/kg, ip administered daily and measured after 28 days by immunohistochemical staining based analysis; format: functional, organism-based; details: time 28.0 day
[20] = Prodrug conversion in human plasma assessed as triptolide release at 1 mg/ml measured after 1 hrs by HPLC analysis; format: ADME, cell-free
[21] = Prodrug conversion in human plasma assessed as triptolide release at 50 to 5000 ng/ml measured for 1 hrs by HPLC analysis; format: ADME, cell-free; details: dose 50-5000 ng/ml
[22] = tested on: MV4-11; experiment: Antitumor activity against human MV4-11 cells xenografted in ip dosed BALB/c nude mouse assessed as induction of apoptosis by measuring increase in cleaved caspase-3 level in tumor administered daily and measured after 28 days by immunohistochemical staining based analysis; format: functional, organism-based; details: dose 25-50 µg/kg, time 28.0 day
[23] = tested on: MV4-11; experiment: Antitumor activity against human MV4-11 cells xenografted in ip dosed BALB/c nude mouse assessed as cell growth inhibition by measuring effect on Ki67 protein expression in tumor administered daily and measured after 28 days by immunohistochemical analysis; format: functional, organism-based; details: dose 25-50 µg/kg, time 28.0 day
[24] = tested on: MV4-11; experiment: Antiproliferative activity against human MV4-11 cells assessed as cell growth inhibition measured after 24 hrs by Edu incorporation assay; format: functional, cell-based
[25] = tested on: MV4-11; experiment: Antitumor activity against human MV4-11 cells xenografted in BALB/c nude mouse assessed as tumor growth inhibition at 300 microg/kg/day, IG measured everyday for 11 days relative to control; format: functional; details: MV4-11, po, 264 h, at 300 µg/kg/day, time 11 day, read-out: TGI
[26] = tested on: MV4-11; experiment: Antitumor activity against human MV4-11 cells xenografted in BALB/c nude mouse assessed as tumor growth inhibition at 25 microg/kg, ip qd measured every 2 days for 28 days relative to control; format: functional; details: MV4-11, 672 h, dose 25 µg/kg, time 28 day, read-out: TGI
[27] = Prodrug conversion in human plasma assessed as (5bS,6aS,7aR,8R,8aS,9aS,9bS,10bS)-8a-isopropyl-10b-methyl-3-oxo-1,2,3,5,5b,6,6a,8,8a,9a,9b,10b-dodecahydrotris(oxireno [2',3':4b,5;2'',3'':6,7;2''',3''':8a,9]phenanthro[1,2-c]furan-8-yl 2-hydroxyacetate intermediate formation by HPLC analysis; format: ADME, cell-free
[28] = tested on: MV4-11; experiment: Potency index, ratio of test compound IC50 to triptolide IC50 for antiproliferative activity against human MV4-11 cells assessed as inhibition of cell growth measured after 48 hrs by CCK8 assay; format: functional
[29] = tested on: MV4-11; experiment: Antitumor activity against human MV4-11 cells xenografted in BALB/c nude mouse assessed as induction of apoptosis by measuring caspase-3 level in tumor at 50 microg/kg, ip administered for 20 days in presence of gilteritinib by immunohistochemical analysis; format: functional, organism-based; details: dose 50.0 µg/kg, time 20.0 day
[30] = tested on: MV4-11; experiment: Antitumor activity against human MV4-11 cells xenografted in BALB/c nude mouse assessed as tumor growth inhibition at 50 microg/kg, ip administered for 20 days in presence of gilteritinib and measured every 2 days relative to control; format: functional; details: MV4-11, 480 h, dose 50 µg/kg, time 20 day, read-out: TGI
[31] = tested on: THP-1; experiment: Antitumor activity against human THP-1 cells xenografted in BALB/c nude mouse assessed as tumor growth inhibition at 100 microg/kg, ip qd measured every 2 days for 28 days relative to control; format: functional; details: THP-1, 672 h, dose 100 µg/kg, time 28 day, read-out: TGI
[32] = Toxicity in BALB/c nude mouse xenografted with human MV4-11 cells assessed as change in body weight at 180 microg/kg/day, IG measured everyday for 11 days; details: in vivo, po, 264 h, dose 180 µg/kg/day, time 11 day
[33] = Toxicity in BALB/c nude mouse xenografted with human THP-1 cells assessed as animal death at 2.4 to 4.8 mg/kg, ip qd measured after 2 to 3 days; format: organism-based; details: in vivo, dose lower 2.4 mg/kg, time lower 2 day, dose upper 4.8 mg/kg, time upper 3 day
[34] = Microsomal stability in rat liver microsomes assessed as hepatic clearance; format: ADME, Microsome
[35] = Prodrug conversion in human plasma assessed as triptolide release at 500 ng/ml measured after 1 hrs by UPLC-MS/MS analysis; format: ADME, cell-free
[36] = Microsomal stability in rat liver microsomes assessed as half life; format: ADME, Microsome
[37] = tested on: THP-1; experiment: Antiproliferative activity against human THP-1 cells assessed as cell growth inhibition measured after 24 hrs by Edu incorporation assay; format: functional, cell-based; details: dose 30-120 nM
[38] = tested on: THP-1; experiment: Antitumor activity against human THP-1 cells xenografted in BALB/c nude mouse assessed as cell growth inhibition by measuring effect on Ki67 protein expression in tumor at 0.1 mg/kg, ip administered daily and measured after 28 days by immunohistochemical analysis; format: functional, organism-based; details: time 28.0 day
[39] = Prodrug conversion in Sprague-Dawley rat plasma assessed as triptolide release at 500 ng/ml measured after 1 hrs by UPLC-MS/MS analysis; format: ADME, cell-free
[40] = Toxicity in BALB/c nude mouse xenografted with human THP-1 cells assessed as change in body weight at 0.1 to 1.2 mg/kg, ip qd measured every 2 days for 28 days; format: organism-based; details: in vivo, 672 h, dose 0.1-1.2 mg/kg, time 28 day
[41] = Prodrug conversion in human plasma assessed as triptolide release at 50 ug/ml measured after 45 mins by HPLC analysis; format: ADME, cell-free; details: 0.75 h, dose 50 µg/ml

Which Cmax [1] does the source give for `CC(C)[C@]12O[C@H]1[C@@H]1O[C@]13[C@]1(O[C@H]1C[C@H]1C4=C(CC[C@@]13C)C(=O)OC4)[C@@H]2O` [TRIPTOLIDE] here?
The Cmax was 15.9 ng/mL.

What about the AUC(0-t) at 24 h [2] of the same compound?
Its AUC(0-t) at 24 h is 31.9 ng·h/mL.

What about the inhibition in vivo at 0.18 mg/kg/day [3] of the same compound?
The inhibition in vivo at 0.18 mg/kg/day was 91.5%.

What about the IC50 [4] of the same compound?
The IC50 was 0.012 µM.

And the IC50 [5]?
The IC50 was 0.00704 µM.

And the Tmax [6]?
The Tmax was 26.4 min.

For `CC(C)[C@]12O[C@H]1[C@@H]1O[C@]13[C@]1(O[C@H]1C[C@H]1C4=C(CC[C@@]13C)C(=O)OC4)[C@@H]2OC(=O)CCC(=O)[O-].[Na+]` [OMTRIPTOLIDE SODIUM], which Drug metabolism [7] is on record?
Its Drug metabolism is “Metabolite_Detected”.

For `CC(C)[C@]12O[C@H]1[C@@H]1O[C@]13[C@]1(O[C@H]1C[C@H]1C4=C(CC[C@@]13C)C(=O)OC4)[C@@H]2OC(=O)COC(=O)CN1CCN(C)CC1.Cl`, which remaining at 4 h, 2 mg/ml [8] is on record?
The remaining at 4 h, 2 mg/ml was 96.7%.

What about the Drug metabolism [9] of the same compound?
The Drug metabolism was “Metabolite_Detected”.

What about the solubility [10] of the same compound?
Its solubility is 3820 µg/mL.

And the remaining at 0 h, 2 mg/ml [11]?
Its remaining at 0 h, 2 mg/ml is 96.8%.

Which results are given for `CC(C)[C@]12O[C@H]1[C@@H]1O[C@]13[C@]1(O[C@H]1C[C@H]1C4=C(CC[C@@]13C)C(=O)OC4)[C@@H]2OC(=O)COC(=O)CN1CCOCC1.Cl`?
Activity [12]: Active; Activity [13]: Non-Toxic; Ratio IC50 [14]: 2; CLint scaled [15]: 288 mL/min/kg; Drug metabolism [16]: Metabolite_Notdetected; Activity [17]: Active; Activity [18]: Active; Activity [19]: Active; Drug metabolism [20]: Metabolite_Detected; Drug metabolism [21]: Metabolite_Detected; Activity [22]: Dose-Dependent Effect; Activity [23]: Dose-Dependent Effect; Activity [24]: Dose-Dependent Effect; inhibition in vivo at 0.3 mg/kg/day [25]: 93.5%; inhibition in vivo at 0.025 mg/kg [26]: 54.3%; remaining at 4 h, 2 mg/ml [8]: 99.1%; Drug metabolism [9]: Metabolite_Detected; Drug metabolism [27]: Metabolite_Detected; Ratio IC50 [28]: 2; Activity [29]: Active; inhibition in vivo at 0.05 mg/kg [30]: 78.1%; inhibition in vivo at 0.1 mg/kg [31]: 93.9%; Activity [32]: Non-Toxic; Activity [33]: Toxic; CLhep predicted [34]: 65.6 mL/min/kg; Drug metabolism [35]: Metabolite_Detected; half-life [36]: 8.64 min; Activity [37]: Dose-Dependent Effect; solubility [10]: 6130 µg/mL; remaining at 0 h, 2 mg/ml [11]: 99.4%; Activity [38]: Active; Drug metabolism [39]: Metabolite_Detected; IC50 [4]: 0.046 µM; IC50 [5]: 0.0148 µM; Activity [40]: Non-Toxic; Drug metabolism [41]: Metabolite_Detected
